One experiment addresses T1, human alpha2A receptors (Homo sapiens, UniProt P08913).
T1 sequence (P08913 1-465): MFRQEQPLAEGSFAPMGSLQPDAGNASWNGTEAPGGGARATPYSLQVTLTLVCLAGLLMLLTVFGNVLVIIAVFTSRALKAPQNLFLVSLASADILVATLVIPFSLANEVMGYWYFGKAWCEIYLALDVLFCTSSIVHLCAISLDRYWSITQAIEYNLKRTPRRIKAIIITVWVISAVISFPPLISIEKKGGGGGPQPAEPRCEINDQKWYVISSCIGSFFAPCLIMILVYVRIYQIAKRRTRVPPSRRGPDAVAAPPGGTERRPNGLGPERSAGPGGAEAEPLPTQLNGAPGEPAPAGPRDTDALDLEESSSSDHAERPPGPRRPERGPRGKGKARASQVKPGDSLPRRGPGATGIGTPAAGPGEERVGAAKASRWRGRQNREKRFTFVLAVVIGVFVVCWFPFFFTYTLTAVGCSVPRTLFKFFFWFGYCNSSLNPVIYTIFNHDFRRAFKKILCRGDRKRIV
The experiment is described as follows: cell-based.

A further experiment addresses T2, human alpha2C receptors (Homo sapiens, UniProt P18825).
T2 sequence (P18825 1-462): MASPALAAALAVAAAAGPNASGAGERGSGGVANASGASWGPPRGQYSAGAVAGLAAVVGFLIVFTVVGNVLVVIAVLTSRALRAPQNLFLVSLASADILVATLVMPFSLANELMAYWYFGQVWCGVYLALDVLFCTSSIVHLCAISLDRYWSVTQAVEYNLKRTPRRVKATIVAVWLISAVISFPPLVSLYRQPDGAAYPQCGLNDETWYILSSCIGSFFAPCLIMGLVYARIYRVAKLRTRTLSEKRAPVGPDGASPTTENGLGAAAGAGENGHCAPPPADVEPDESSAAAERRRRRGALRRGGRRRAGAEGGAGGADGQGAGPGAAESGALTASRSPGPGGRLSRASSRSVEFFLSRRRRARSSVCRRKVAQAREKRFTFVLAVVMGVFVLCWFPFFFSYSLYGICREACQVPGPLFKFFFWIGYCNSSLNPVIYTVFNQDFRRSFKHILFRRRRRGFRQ
Put plainly: Determination of alpha2C antagonistic activity in vitro (FLIPR calcium assay). The conditions noted are these: for Kb: Alpha 2C Adrenaline Kb, Kb calculated from IC50 with the Cheng-Prusoff equation, adrenaline as agonist, CHO cells, human alpha2C.

Our source for the IC50 and Kb values is patent US20190152992A1, “BENZODIOXANE DERIVATIVES AND THEIR PHARMACEUTICAL USE” (Orion Corporation, priority 2016, published 2019).

pIC50: −log10 of the molar value. Counter-ions that a name gives are not always drawn. Where only a bound is given, the exact number is not on record here.

As a reminder, the pIC50 is the negative decadic logarithm of the IC50, by convention in mol/L.

Procedure for human alpha2C receptors: Experiment 1: Determination of alpha2A and alpha2C Antagonistic Activity In Vitro
The growth medium was removed and the cells were incubated with the test compounds and the FLIPR Calcium 6 Assay reagent (Molecular Devices, CA, USA) for 2 h at 37° C. in dark. The test compounds (concentrations in cells 100 pM-10 μM) were dissolved in Probenecid-Ringer consisting of 150 mM NaCl, 3 mM KCl, 1.2 mM MgCl2, 1 mM CaCl2, 5 mM glucose, 20 mM HEPES and 2.5 mM probenecid (pH 7.4 adjusted with 1.0 M NaOH). […] All experiments were performed at 37° C. For agonism measurements the test compounds dissolved in Probenecid-Ringer were applied by FLIPR Tetra at 15 s time point. In order to determine antagonism, the cells were stimulated either with 100 nM adrenaline or noradrenaline and the test compounds were added to the cells 2 h before the experiment with the FLIPR Calcium 6 Assay reagent. […] Typically, there were four replicates at each concentration and six different dose levels. […] The minimum fluorescence value subtracted from the maximum value for each well was used in the calculations. ScreenWorks version 4.0 software was used for analyzing the results. Fitting of the antagonist dose-response results was performed with the free Hill equation and the IC50 values were fitted with IDBS XE software using model 200: y=(A+(B/(1+((x/C)̂D)))), where A is the curve maximum, B the curve minimum and C equals the EC50 value. D is slope factor (Hill). Kb was calculated with the Cheng-Prusoff equation Kb=A/((B/C)+1), where A is the IC50 of antagonist, B the concentration of agonist and C the EC50 of the agonist.

Consider `O=C1C(=O)N([C@H]2CCCN(C[C@H]3COc4ccccc4O3)C2)C(=O)N1C1CCNCC1` [example 137, 1-((S)-1-(((S)-2,3-Dihydrobenzo[b][1,4]dioxin-2-yl)methyl)piperidin-3-yl)-3-(piperidin-4-yl)imidazolidine-2,4,5-trione dihydrochloride], for which, at human alpha2A receptors, the pIC50 was < 5.00 and the Kb is > 449 nM. For the same molecule, at human alpha2C receptors, the pIC50 was 8.26 and the Kb is 0.554 nM.
As for `CN1C(=O)C(=O)N([C@H]2CCCN(C[C@H]3COc4ccccc4O3)C2)C1=O` [example 138, 1-((S)-1-(((S)-2,3-Dihydrobenzo[b][1,4]dioxin-2-yl)methyl)piperidin-3-yl)-3-methylimidazolidine-2,4,5-trione], the pIC50 on human alpha2A receptors was < 5.00; on human alpha2C receptors, 8.36. The Kb on human alpha2A receptors was > 449 nM; on human alpha2C receptors, 0.438 nM.
In the same order, the values of `CC(=O)N1CCC(N2C(=O)C(=O)N([C@H]3CCCN(C[C@H]4COc5ccccc5O4)C3)C2=O)CC1` [example 139, 1-(1-Acetylpiperidin-4-yl)-3-((S)-1-(((S)-2,3-dihydrobenzo[b][1,4]-dioxin-2-yl)methyl)piperidin-3-yl)imidazolidine-2,4,5-trione] are 5.01, 9.95, 441 nM and 0.012 nM.
Turning to `O=C1C(=O)N([C@H]2CCCN(C[C@H]3COc4ccccc4O3)C2)C(=O)N1Cc1ccncc1` [example 140, 1-((S)-1-(((S)-2,3-Dihydrobenzo[b][1,4]dioxin-2-yl)methyl)piperidin-3-yl)-3-(pyridin-4-ylmethyl)imidazolidine-2,4,5-trione], at human alpha2A receptors, the pIC50 was < 5.00 and the Kb is > 449 nM. Also, at human alpha2C receptors, the pIC50 is 8.66 and the Kb is 0.22 nM.
For `CC(C)CN1C(=O)C(=O)N([C@H]2CCCN(C[C@H]3COc4ccccc4O3)C2)C1=O` [example 141, 1-((S)-1-(((S)-2,3-Dihydrobenzo[b][1,4]dioxin-2-yl)methyl)piperidin-3-yl)-3-isobutylimidazolidine-2,4,5-trione], the values for the pIC50 on human alpha2A receptors and on human alpha2C receptors were < 5.00 and 9.35, respectively. Moreover, the Kb on human alpha2A receptors is > 449 nM; on human alpha2C receptors it was 0.045 nM.
In the same order, the values of `O=C1C(=O)N([C@H]2CCCN(C[C@H]3COc4ccccc4O3)C2)C(=O)N1Cc1ccccn1` [example 142, 1-((S)-1-(((S)-2,3-Dihydrobenzo[b][1,4]dioxin-2-yl)methyl)piperidin-3-yl)-3-(pyridin-2-ylmethyl)imidazolidine-2,4,5-trione] are < 5.00, 9.07, > 449 nM and 0.085 nM.
Take `O=C1C(=O)N([C@H]2CCCN(C[C@H]3COc4ccccc4O3)C2)C(=O)N1Cc1cccnc1` [example 143, 1-((S)-1-(((S)-2,3-Dihydrobenzo[b][1,4]dioxin-2-yl)methyl)piperidin-3-yl)-3-(pyridin-3-ylmethyl)imidazolidine-2,4,5-trione]: on human alpha2A receptors, the pIC50 is < 5.00 and the Kb was > 449 nM. For the same molecule, at human alpha2C receptors, the pIC50 is 8.86 and the Kb is 0.14 nM.
With `c1ccc2c(c1)OC[C@H](CN1CCC[C@H](n3nnc4ccccc43)C1)O2` [example 145, 1-((S)-1-(((S)-2,3-Dihydrobenzo[b][1,4]dioxin-2-yl)methyl)piperidin-3-yl)-1H-benzo[d][1,2,3]triazole], on human alpha2A receptors, the negative logarithm of the IC50 (pIC50) was 5.56 and the Kb worked out at 125 nM. On human alpha2C receptors, the pIC50 is 9.07 and the Kb was 0.09 nM.
At human alpha2A receptors, `O=S1(=O)Nc2ccccc2N1[C@H]1CCCN(C[C@H]2COc3ccccc3O2)C1` [example 146, 1-((S)-1-(((S)-2,3-Dihydrobenzo[b][1,4]dioxin-2-yl)methyl)piperidin-3-yl)-1,3-dihydrobenzo[c][1,2,5]thiadiazole 2,2-dioxide] showed a pIC50 of 5.14 and a Kb of 323 nM. In addition, on human alpha2C receptors, the pIC50 was 5.98 and the Kb is 105 nM.
Take `Cn1c(=O)n([C@H]2CCCN(C[C@H]3COc4ccccc4O3)C2)c2ccccc21` [example 147, 1-((S)-1-(((S)-2,3-Dihydrobenzo[b][1,4]dioxin-2-yl)methyl)piperidin-3-yl)-3-methyl-1H-benzo[d]imidazol-2(3H)-one]: at human alpha2A receptors, the pIC50 is < 5.00 and the Kb is > 449 nM. Moreover, at human alpha2C receptors, the pIC50 is 6.64 and the Kb is 22.9 nM.
In the same order, the values of `O=c1n(-c2ccccc2)c2ccccc2n1[C@H]1CCCN(C[C@H]2COc3ccccc3O2)C1` [example 149, 1-((S)-1-(((S)-2,3-Dihydrobenzo[b][1,4]dioxin-2-yl)methyl)piperidin-3-yl)-3-phenyl-1H-benzo[d]imidazol-2(3H)-one] are < 5.00, > 449 nM, 5.49 and 324 nM.
Taken in the same sequence, the figures for `Cc1nc2ccccc2n1[C@H]1CCCN(C[C@H]2COc3ccccc3O2)C1` [example 150, 1-((S)-1-(((S)-2,3-Dihydrobenzo[b][1,4]dioxin-2-yl)methyl)piperidin-3-yl)-2-methyl-1H-benzo[d]imidazole] were 5.35, 201 nM, > 10.00 and < 0.01 nM.
Taken in the same sequence, the figures for `COCc1nc2ccccc2n1[C@H]1CCCN(C[C@H]2COc3ccccc3O2)C1` [example 151, 1-((S)-1-(((S)-2,3-Dihydrobenzo[b][1,4]dioxin-2-yl)methyl)piperidin-3-yl)-2-(methoxymethyl)-1H-benzo[d]imidazole] were 5.21, 276 nM, > 10.00 and < 0.01 nM.
With `CN(C)Cc1nc2ccc(Cl)cc2n1[C@H]1CCCN(C[C@H]2COc3ccccc3O2)C1` [example 152, 1-(6-Chloro-1-((S)-1-(((S)-2,3-dihydrobenzo[b][1,4]dioxin-2-yl)methyl)piperidin-3-yl)-1H-benzo[d]imidazol-2-yl)-N,N-dimethylmethanamine], at human alpha2A receptors, the pIC50 was 6.54 and the Kb was found to be 13 nM. In addition, at human alpha2C receptors, the pIC50 is 7.16 and the Kb was 7.03 nM.
In the same order, the values of `CNCc1nc2ccc(Cl)cc2n1[C@H]1CCCN(C[C@H]2COc3ccccc3O2)C1` [example 153, 1-(6-Chloro-1-((S)-1-(((S)-2,3-dihydrobenzo[b][1,4]dioxin-2-yl)methyl)piperidin-3-yl)-1H-benzo[d]imidazol-2-yl)-N-methylmethanamine] are < 5.00, > 449 nM, 5.45 and 361 nM.
Take `O=c1[nH]c2c(F)cccc2n1[C@H]1CCCN(C[C@H]2COc3ccccc3O2)C1` [example 154, 1-((S)-1-(((S)-2,3-Dihydrobenzo[b][1,4]dioxin-2-yl)methyl)piperidin-3-yl)-4-fluoro-1H-benzo[d]imidazol-2(3H)-one]: at human alpha2A receptors, the pIC50 is < 5.00 and the Kb is > 449 nM. For the same molecule, on human alpha2C receptors, the pIC50 was > 10.00 and the Kb is < 0.01 nM.
In the same order, the values of `COc1ccc2nc(C)n([C@H]3CCCN(C[C@H]4COc5ccccc5O4)C3)c2n1` [example 155, 3-((S)-1-(((S)-2,3-Dihydrobenzo[b][1,4]dioxin-2-yl)methyl)piperidin-3-yl)-5-methoxy-2-methyl-3H-imidazo[4,5-b]pyridine] are < 5.00, > 449 nM, 7.25 and 5.64 nM.
For the molecule `Cc1nc2cccnc2n1[C@H]1CCCN(C[C@H]2COc3ccccc3O2)C1` [example 156, 3-((S)-1-(((S)-2,3-Dihydrobenzo[b][1,4]dioxin-2-yl)methyl)-piperidin-3-yl)-2-methyl-3H-imidazo[4,5-b]pyridine], the pIC50 against human alpha2A receptors is 5.45; at human alpha2C receptors, 10.92. In addition, the Kb was 161 nM at human alpha2A receptors and 0.001 nM at human alpha2C receptors.
Taken in the same sequence, the figures for `Cc1nc2ncccc2n1[C@H]1CCCN(C[C@H]2COc3ccccc3O2)C1` [example 157, 1-((S)-1-(((S)-2,3-Dihydrobenzo[b][1,4]dioxin-2-yl)methyl)-piperidin-3-yl)-2-methyl-1H-imidazo[4,5-b]pyridine] were < 5.00, 8.79, > 449 nM and 0.164 nM.
Taken in the same sequence, the figures for `Cc1nc2cnccc2n1[C@H]1CCCN(C[C@H]2COc3ccccc3O2)C1` [example 158, 1-((S)-1-(((S)-2,3-Dihydrobenzo[b][1,4]dioxin-2-yl)methyl)piperidin-3-yl)-2-methyl-1H-imidazo[4,5-c]pyridine] were < 5.00, 8.46, > 449 nM and 0.346 nM.
